In patent publication US5072032A, “Preparation and use of thiophosphonates and thio-analogues of phosphonoformic acid” (priority 1989, dated 1991):
Read-outs that look alike come from different tables or passages of the source.

Experiments:
[1] = molecular target: T1, HIV-1 reverse transcriptase (Human immunodeficiency virus type 1 group M subtype B, UniProt P04585); experiment: HIV-1 reverse transcriptase assay (viral polymerase inhibition); type: biochemical
T1 construct: made in house

[2] = molecular target: T2, HSV-1 DNA polymerase (Human herpesvirus 1, UniProt P04293); experiment: Viral polymerase inhibition, HSV-1; type: biochemical
T2 construct: made in house
T2 sequence (P04293 whole entry): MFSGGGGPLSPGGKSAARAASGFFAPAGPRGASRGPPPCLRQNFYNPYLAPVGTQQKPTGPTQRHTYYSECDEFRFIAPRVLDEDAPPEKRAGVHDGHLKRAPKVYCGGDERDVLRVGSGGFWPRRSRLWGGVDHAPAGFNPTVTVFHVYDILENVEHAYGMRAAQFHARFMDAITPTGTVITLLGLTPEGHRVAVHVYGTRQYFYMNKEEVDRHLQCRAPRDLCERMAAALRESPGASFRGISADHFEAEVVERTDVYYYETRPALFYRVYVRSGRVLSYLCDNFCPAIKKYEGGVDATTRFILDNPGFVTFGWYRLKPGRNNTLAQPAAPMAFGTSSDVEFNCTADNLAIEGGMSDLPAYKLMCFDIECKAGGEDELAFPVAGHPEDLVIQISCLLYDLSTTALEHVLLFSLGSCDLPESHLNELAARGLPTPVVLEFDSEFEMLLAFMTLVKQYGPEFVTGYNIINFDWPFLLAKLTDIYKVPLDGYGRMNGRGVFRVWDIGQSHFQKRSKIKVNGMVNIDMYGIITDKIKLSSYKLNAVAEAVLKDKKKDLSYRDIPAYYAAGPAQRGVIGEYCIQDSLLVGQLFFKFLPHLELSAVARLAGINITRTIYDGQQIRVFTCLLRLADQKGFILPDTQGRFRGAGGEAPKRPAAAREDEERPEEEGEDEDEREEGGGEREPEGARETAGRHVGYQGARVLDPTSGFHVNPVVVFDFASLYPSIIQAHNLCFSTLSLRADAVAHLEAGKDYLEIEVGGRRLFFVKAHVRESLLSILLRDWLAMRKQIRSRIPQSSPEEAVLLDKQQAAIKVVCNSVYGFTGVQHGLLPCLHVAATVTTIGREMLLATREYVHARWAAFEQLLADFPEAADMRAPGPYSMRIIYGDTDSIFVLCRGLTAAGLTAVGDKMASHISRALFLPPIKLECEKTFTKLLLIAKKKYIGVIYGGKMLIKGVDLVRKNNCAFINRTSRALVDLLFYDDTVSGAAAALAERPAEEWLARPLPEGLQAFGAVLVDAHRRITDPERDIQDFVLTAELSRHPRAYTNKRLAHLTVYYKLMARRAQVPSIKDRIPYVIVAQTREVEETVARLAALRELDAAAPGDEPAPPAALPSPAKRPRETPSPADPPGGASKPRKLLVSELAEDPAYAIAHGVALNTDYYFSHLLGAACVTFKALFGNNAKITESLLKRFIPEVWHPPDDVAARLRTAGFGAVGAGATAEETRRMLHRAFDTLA
Text: Viral DNA polymerases (HSV-1, HSV-2, EBV) were purified by previously published methods (Derce, D. K. F. Bastow, and Y. C. Cheng (1982) J. Boil. Chem. 257:10251-10260; Ostrander, M., and Y. C. Cheng (1980) Biochim. Biophys. Acta 609:232-245; Tan, R. S., A. Datta. and Y. C. Cheng (1982) J. Virol. 44:893-899). These procedures generally included sequential chromatography on DEAE-cellulose. HIV reverse transcriptase was purified by antibody affinity column chromatography as descrbed (Starnes. M. C. and Y. C. Cheng (1989) J. Biol. Chem. 264:7073-7077). The purified enzymes were dialyzed against and stored in 50 mM Tris-HCl (pH 7.5) containing 1 mM each of DTT, EDTA and PMSF plus 30% glycerol. Mammalian DNA polymerases alpha, beta, gamma, and delta were partially purified from K562 celles (chronic myelogenous leukemia tissue culture line). Briefly, washed cell pellets were extracted and passed throgh DEAE-cellulose in the presence of 300 mM KPO4 (pH 7.5) as previously described (Starnes, M. C., and Y. C. Cheng (1987) J. Biol. Chem 282:988-981) to remove DNA. The column flow-through fractions were dialyzed against buffer which contained 50 mM Tris-HCl (pH 7.5), and fractionated on a single-stranded DNA-cellulose column with a 0-1M KCl gradient. […]

[3] = molecular target: T3, EBV DNA polymerase (Epstein-Barr virus, UniProt P03198); experiment: Viral polymerase inhibition, EBV; type: biochemical
T3 construct: made in house
T3 sequence (P03198 whole entry): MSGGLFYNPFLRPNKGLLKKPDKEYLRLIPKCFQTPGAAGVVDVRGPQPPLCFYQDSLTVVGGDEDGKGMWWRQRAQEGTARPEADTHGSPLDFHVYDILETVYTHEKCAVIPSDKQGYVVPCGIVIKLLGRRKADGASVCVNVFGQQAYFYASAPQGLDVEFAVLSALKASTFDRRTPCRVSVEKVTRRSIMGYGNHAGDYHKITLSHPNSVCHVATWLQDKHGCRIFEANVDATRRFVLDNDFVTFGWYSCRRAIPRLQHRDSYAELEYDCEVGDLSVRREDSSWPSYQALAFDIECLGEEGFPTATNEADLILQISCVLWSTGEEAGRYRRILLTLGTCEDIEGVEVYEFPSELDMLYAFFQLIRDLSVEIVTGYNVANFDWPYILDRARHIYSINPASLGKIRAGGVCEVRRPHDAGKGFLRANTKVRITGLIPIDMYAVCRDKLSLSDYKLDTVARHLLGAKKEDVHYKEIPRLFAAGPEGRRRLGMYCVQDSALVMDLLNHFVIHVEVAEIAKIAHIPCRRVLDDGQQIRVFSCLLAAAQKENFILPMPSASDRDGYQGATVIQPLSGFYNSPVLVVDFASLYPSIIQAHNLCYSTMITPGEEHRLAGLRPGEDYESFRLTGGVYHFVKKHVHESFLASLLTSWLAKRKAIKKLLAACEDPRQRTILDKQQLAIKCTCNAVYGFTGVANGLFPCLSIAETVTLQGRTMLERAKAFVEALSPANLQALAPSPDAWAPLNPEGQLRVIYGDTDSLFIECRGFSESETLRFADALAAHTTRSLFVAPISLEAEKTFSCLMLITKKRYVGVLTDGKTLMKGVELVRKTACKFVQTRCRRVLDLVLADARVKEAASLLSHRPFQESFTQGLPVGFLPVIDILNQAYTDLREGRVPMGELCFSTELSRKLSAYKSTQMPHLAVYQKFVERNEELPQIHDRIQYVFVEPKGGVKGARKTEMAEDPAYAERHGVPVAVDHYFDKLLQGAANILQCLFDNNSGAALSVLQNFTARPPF
Text: (§1) Viral DNA polymerases (HSV-1, HSV-2, EBV) were purified by previously published methods (Derce, D. K. F. Bastow, and Y. C. Cheng (1982) J. Boil. Chem. 257:10251-10260; Ostrander, M., and Y. C. Cheng (1980) Biochim. Biophys. Acta 609:232-245; Tan, R. S., A. Datta. and Y. C. Cheng (1982) J. Virol. 44:893-899). These procedures generally included sequential chromatography on DEAE-cellulose. HIV reverse transcriptase was purified by antibody affinity column chromatography as descrbed (Starnes. M. C. and Y. C. Cheng (1989) J. Biol. Chem. 264:7073-7077). The purified enzymes were dialyzed against and stored in 50 mM Tris-HCl (pH 7.5) containing 1 mM each of DTT, EDTA and PMSF plus 30% glycerol. Mammalian DNA polymerases alpha, beta, gamma, and delta were partially purified from K562 celles (chronic myelogenous leukemia tissue culture line). Briefly, washed cell pellets were extracted and passed throgh DEAE-cellulose in the presence of 300 mM KPO4 (pH 7.5) as previously described (Starnes, M. C., and Y. C. Cheng (1987) J. Biol. Chem 282:988-981) to remove DNA. The column flow-through fractions were dialyzed against buffer which contained 50 mM Tris-HCl (pH 7.5), and fractionated on a single-stranded DNA-cellulose column with a 0-1M KCl gradient.
Standard assays were run at 37° C. and contained: 50 mM Tris, pH b 8.0, 0.5 mM DTT, 8 mM MgCl2, 100 μg/mL BSA, 150 μg/mL gapped calf thymus DNA, 100 μM each dATP, dCTP, dGTP, 10 .parallel.M [^3 H]-dTTP, and 1-5 .parallel.L enzyme in a final volume of 50 .parallel.L. Modified assays for pH dependence inhibition studies with PFA (1) and α--oxo phosphonates (4 and 5) contained 50 mM Hepes, pH 8.2-6.5, 8 mM MgCl2, 100 mM KCl, 100 μg/ml BSA, 0.5 A260 units/ml of poly(rA).(dT)10, 100 μM [^3 H]dTTP, and 1.5 .parallel.L enzyme in a final volume of 50 μL. Samples were processed as described above.

[4] = molecular target: T4, human DNA polymerase β (Homo sapiens, UniProt P06746); experiment: Human DNA polymerase inhibition, beta; type: biochemical; settings: for remaining activity at 100 µM: read-out: % Control at 100 μM ± S.D.
T4 construct: Mammalian DNA polymerases alpha, beta, gamma, and delta were partially purified from K562 celles; endogenous in cells; host or cells: K562 (chronic myelogenous leukemia tissue culture line)
Text: as §1
In accordance with the teaching of the present invention similar enzyme inhibition assays were also conducted with respect to mammalian enzymes, more particularly, human DNA polymerase.

[5] = test system: HIV-1 (HTLV-IIIB); experiment: HIV inhibition in cell culture, p24 antigen capture assay in H9 lymphocytes; type: cell-based
Procedure: (§2) In addition to testing the activity of TPFA against HIV enzyme, the activity against the virus itself was also determined in accordance with the following protocol. The experimental protocol involved incubatino of H9 lymphocytes (3.5×10^6 cells/ml) in the presence or absence of HIV-1 (HTLV-IIIB) for one hour at 37° C. Cells were washed thoroughly to remove unabsorbed virions and re-suspended at 4×10^5 cells/ml in culture medium. Aliquots (1 ml) were placed in wells of 24 well culture plates containing any equal volume of test compound (diluted in culture medium). After incubation for three days at 37° C., cell density of uninfected cultures was determined to assess toxicity of the test compound. A p24 antigen capture was used to determine the level of HIV infection in HIV treated cultures. The ability of test compounds to inhibit HIV replication was measured at different concentrations relative to infected, untreated cultures. Test compounds were considered to be active if p24 levels were <70% of infected, untreated cultures. Cytotoxicity in uninfect4ed H9 cells was not detected.

[6] = Toxicity: cell density of uninfected H9 cultures; type: cell-based; settings: human, h9 cells, 3 days, read-out: Cell Survival (%)
Procedure: as §2

[7] = test system: uninfected H9 cells; experiment: Toxicity: cell density of uninfected H9 cultures; type: cell-based; settings: 3 days
Procedure: as §2

[8] = test system: HSV-1; settings: reported by Hutchinson et al.; cited from earlier work
[9] = Human immunodeficiency virus 1, IIIB, H9, 72 h, read-out: p24 Ave (%)

In the case of `O=C(O)P(=O)(O)O` [PFA, phosphonoformic acid], the IC50 [1] is reported as 700 nM, the IC50 ([2]; HSV-1, "activated" DNA, read-out: ID50 (the source's name)) is reported as 700 nM and the IC50 ([3]; EBV, "activated" DNA, read-out: ID50 (the source's name)) is reported as 1000 nM. The remaining activity at 100 µM ([4]; Pol β, 100 μM, "activated" DNA) was 89 ± 8%, the IC50 ([4]; Pol β, "activated" DNA, read-out: ID50 (the source's name)) was over 100000 nM and the activity at 1.9 µg/mL ([5]; Human immunodeficiency virus 1, IIIB, H9, 72 h, drug conc. 1.9 μg/mL, % of infected untreated control p24, read-out: p24 Ave (%)) was 88%. The activity at 7.5 µg/mL ([5]; Human immunodeficiency virus 1, IIIB, H9, 72 h, drug conc. 7.5 μg/mL, % of infected untreated control p24, read-out: p24 Ave (%)) was 35%, the activity at 30 µg/mL ([5]; Human immunodeficiency virus 1, IIIB, H9, 72 h, drug conc. 30 μg/mL, % of infected untreated control p24, read-out: p24 Ave (%)) was 10% and the activity at 120 µg/mL ([5]; Human immunodeficiency virus 1, IIIB, H9, 72 h, drug conc. 120 μg/mL, % of infected untreated control p24, read-out: p24 Ave (%)) was -2%. The “Inhibition Score” value ([5]; drug conc. 7.5 μg/mL) was “** (**25-49% control p24)”, the “Inhibition Score” value ([5]; drug conc. 30 μg/mL) was “*** (***<25% control p24)” and the “Inhibition Score” value ([5]; drug conc. 120 μg/mL) was “*** (***<25% control p24)”. It also gave a viability at 72 h ([6]; drug conc. 1.9 μg/mL) of 98%, a viability at 72 h ([6]; drug conc. 7.5 μg/mL) of 96% and a viability at 72 h ([6]; drug conc. 30 μg/mL) of 92%. For the same compound, the viability at 72 h ([6]; drug conc. 120 μg/mL) was 102%, the Toxicity ([7]; drug conc. 1.9 μg/mL) was “non-T” and the Toxicity ([7]; drug conc. 7.5 μg/mL) was “non-T”. For the same compound, the Toxicity ([7]; drug conc. 30 μg/mL) was “non-T”, the Toxicity ([7]; drug conc. 120 μg/mL) was “non-T” and the “relative ID50 values with respect to HSV-1” value [8] was 12.
`O=C(O)P(O)(O)=S` [TPFA, thiophosphonoformic acid] showed an IC50 [1] of 1000 nM, an IC50 [2] of 11800 nM and an IC50 [3] of 70000 nM. For the same compound, the “effectiveness of TPFA relative to PFA” value ([3]; EBV enzyme, ratio of ID50 values of Table I) was “more than seventy times less effective”, the IC50 [4] was over 100000 nM and the remaining activity at 100 µM [4] was 91 ± 4%. It also gave an activity at 0.1 µg/mL [5, 9] of 139%, an activity at 0.5 µg/mL [5, 9] of 117% and an activity at 2 µg/mL [5, 9] of 90%. For the same compound, the activity at 10 µg/mL [5, 9] was 35%, the activity at 50 µg/mL [5, 9] was 0% and the activity at 200 µg/mL [5, 9] was -3%. The “Inhibition Score” value ([5]; drug conc. 10 μg/mL) was “** (**25-49% control p24)”, the “Inhibition Score” value ([5]; drug conc. 50 μg/mL) was “*** (***<25% control p24)” and the “Inhibition Score” value ([5]; drug conc. 200 μg/mL) was “*** (***<25% control p24)”. For the same compound, the viability at 72 h ([6]; drug conc. 0.1 μg/mL) was 113%, the viability at 72 h ([6]; drug conc. 0.5 μg/mL) was 113% and the viability at 72 h ([6]; drug conc. 2 μg/mL) was 110%. It also gave a viability at 72 h ([6]; drug conc. 10 μg/mL) of 104%, a viability at 72 h ([6]; drug conc. 50 μg/mL) of 93% and a viability at 72 h ([6]; drug conc. 200 μg/mL) of 84%. For the same compound, the Toxicity ([7]; drug conc. 0.1 μg/mL) was “non-T”, the Toxicity ([7]; drug conc. 0.5 μg/mL) was “non-T” and the Toxicity ([7]; drug conc. 2 μg/mL) was “non-T”. The Toxicity ([7]; drug conc. 10 μg/mL) was “non-T”, the Toxicity ([7]; drug conc. 50 μg/mL) was “non-T” and the Toxicity ([7]; drug conc. 200 μg/mL) was “non-T”. The “relative ID50 values with respect to HSV-1” value [8] was 9.
